Test results published in patent publication US10357473B2, “Method for treating a prolifitive disorder with a cis-diamine platinum complex” (KING FAHD UNIVERSITY OF PETROLEUM AND MINERALS, priority 2017, dated 2019).

Key:
Type in all cases: cell-based
[1] = system: A549 (human lung carcinoma) cell line; assay: In vitro cytotoxic activity (MTT assay) against A549 cells; conditions: for IC50: MTT assay, cultures incubated 24 h with compound, ± standard deviation, three independent experiments; for in vitro cytotoxicity against A549 compared in words with cisplatin / carboplatin: A549 cells, comparison of IC50 values
Experimental: (§1) The cis-[Pt(NH3)2(thione)2].2NO3 complexes were evaluated for their in vitro cytotoxic activity against A549 (human lung cancer), MCF-7 (human breast cancer) and HTC15 (human colon cancer) cell lines. The cells were seeded at 4×10^3 cells/well in 100 μL DMEM containing 10% FBS in 96-wells tissue culture plate and incubated for 72 h at 37° C., 5% CO2 in the air and 90% relative humidity in the CO2 incubator. […] The medium of wells was discarded and 100 μL DMEM containing MTT (3-(4,5-Dimethylthiazol-2-yl)-2,5-diphenyltetrazolium Bromide) (5 mg/mL) was added to the wells and incubated in a CO2 incubator at 37° C. in dark for 4 h. After incubation, purple colored formazan (artificial chromogenic dye, a product of the reduction of water insoluble tetrazolium salts e.g., MMT by dehydrogenases and reductases) in the cells is produced and appeared as dark crystals in the bottom of the wells. The resultant crystals were solubilized by adding 100 μL of DMSO in each well. The solution was thoroughly mixed to dissolve the formazan crystals, producing a purple solution. The absorbance of the 96-wells plate was taken at 570 nm with Labsystems Multiskan EX-Enzyme-linked immunosorbent assay (EX-ELISA) reader against a reagent blank. The IC50 values were calculated from three independent experiments by generating an equation of logarithmic trendline of percentage cell viability against concentration compounds in Microsoft excel.
(§2) The MTT assay was performed in three independent experiments, each in triplicate. The cancer cell lines used are A549 (human lung cancer), MCF-7 (human breast cancer) and HTC15 (human colon cancer) cell lines.

[2] = system: MCF7 (human breast carcinoma) cell line; assay: In vitro cytotoxic activity (MTT assay) against MCF7 cells; conditions: for antiproliferative potency against MCF7 in words, compared with cisplatin / carboplatin: MCF7 cells, comparison of IC50 values; for IC50: MTT assay, cultures incubated 24 h with compound, ± standard deviation, three independent experiments
Experimental: as §1
(§3) The IC50 values were obtained from curves between the complexes concentration and viability percentage of the cells, and are listed, in Table 3.
as §2, with “The experimental results are presented as the micro-mole concentration of 50%/0 cell growth inhibition (IC50) of each drug. The MTT” for “The MTT”

[3] = system: HCT15 (human colon adenocarcinoma) cell line; assay: In vitro cytotoxic activity (MTT assay) against HCT15 cells; conditions: for IC50: MTT assay, cultures incubated 24 h with compound, ± standard deviation, three independent experiments; for cytotoxicity against HCT15 compared in words with cisplatin / carboplatin: HCT15 cells, comparison of IC50 values
Experimental: as §1, §3
as §2, with “The experimental results are presented as the micro-mole concentration of 50%/0 cell growth inhibition (IC50) of each drug. The MTT” for “The MTT”

N.N.O=C([O-])C1(C(=O)[O-])CCC1.[Pt+2] [Carboplatin, reference compound]
IC50 [1]: 70 ± 2 µM | antiproliferative potency against MCF7 in words, compared with cisplatin / carboplatin [2]: poor antiproliferative potency | IC50 [2]: 63 ± 2 µM | IC50 [3]: 53 ± 2 µM

N.N.[Cl][Pt][Cl] [Cisplatin, cis-diaminedichloridoplatinum(II), reference compound]
IC50 [1]: 42 ± 2 µM | IC50 [2]: 23 ± 3 µM | IC50 [3]: 32 ± 2 µM

O=[N+]([O-])[O-].O=[N+]([O-])[O-].[NH3+][Pt-2]([NH3+])([S+]=C1NCCN1)[S+]=C1NCCN1 [Compound 1, cis-[Pt(NH3)2(Imt)2].2NO3]
in vitro cytotoxicity against A549 compared in words with cisplatin / carboplatin [1]: comparable to cisplatin | IC50 [1]: 53 µM | IC50 [2]: 101 ± 2 µM | IC50 [3]: 82 ± 1 µM

CN1CCNC1=[S+][Pt-2]([NH3+])([NH3+])[S+]=C1NCCN1C.O=[N+]([O-])[O-].O=[N+]([O-])[O-] [Compound 2, cis-[Pt(NH3)2(MeImt)2].2NO3]
IC50 [1]: 85 ± 1 µM | IC50 [2]: 82 ± 1 µM | IC50 [3]: 75 ± 2 µM

CN1CCN(C)C1=[S+][Pt-2]([NH3+])([NH3+])[S+]=C1N(C)CCN1C.O=[N+]([O-])[O-].O=[N+]([O-])[O-] [Compound 3, cis-[Pt(NH3)2(Me2Imt)2].2NO3]
IC50 [1]: 68 ± 1 µM | antiproliferative potency against MCF7 in words, compared with cisplatin / carboplatin [2]: greater cytotoxic effect than carboplatin | IC50 [2]: 58 µM | cytotoxicity against HCT15 compared in words with cisplatin / carboplatin [3]: nearly same value as carboplatin | IC50 [3]: 54 ± 1 µM

CCN1CCN(CC)C1=[S+][Pt-2]([NH3+])([NH3+])[S+]=C1N(CC)CCN1CC.O=[N+]([O-])[O-].O=[N+]([O-])[O-] [Compound 4, cis-[Pt(NH3)2(Et2Imt)2].2NO3]
IC50 [1]: 108 ± 2 µM | IC50 [2]: 97 ± 3 µM | IC50 [3]: 97 ± 3 µM

CCCN1CCNC1=[S+][Pt-2]([NH3+])([NH3+])[S+]=C1NCCN1CCC.O=[N+]([O-])[O-].O=[N+]([O-])[O-] [Compound 5, cis-[Pt(NH3)2(PrImt)2].2NO3]
in vitro cytotoxicity against A549 compared in words with cisplatin / carboplatin [1]: nearly same as that of carboplatin | IC50 [1]: 72 ± 2 µM | IC50 [2]: 74 ± 2 µM | cytotoxicity against HCT15 compared in words with cisplatin / carboplatin [3]: lower IC50 values | IC50 [3]: 51 ± 2 µM

CC(C)N1CCNC1=[S+][Pt-2]([NH3+])([NH3+])[S+]=C1NCCN1C(C)C.O=[N+]([O-])[O-].O=[N+]([O-])[O-] [Compound 6, cis-[Pt(NH3)2(iPrImt)2].2NO3]
in vitro cytotoxicity against A549 compared in words with cisplatin / carboplatin [1]: comparable to cisplatin | IC50 [1]: 55 µM | IC50 [2]: 81 ± 3 µM | cytotoxicity against HCT15 compared in words with cisplatin / carboplatin [3]: lower IC50 values | IC50 [3]: 48 ± 1 µM

CC(C)N1CCN(C(C)C)C1=[S+][Pt-2]([NH3+])([NH3+])[S+]=C1N(C(C)C)CCN1C(C)C.O=[N+]([O-])[O-].O=[N+]([O-])[O-] [Compound 7, cis-[Pt(NH3)2(iPr2Imt)2].2NO3]
in vitro cytotoxicity against A549 compared in words with cisplatin / carboplatin [1]: comparable to cisplatin | IC50 [1]: 50 µM | IC50 [2]: 78 ± 2 µM | cytotoxicity against HCT15 compared in words with cisplatin / carboplatin [3]: lower IC50 values | IC50 [3]: 52 ± 1 µM

O=[N+]([O-])[O-].O=[N+]([O-])[O-].[NH3+][Pt-2]([NH3+])([S+]=C1NCCCN1)[S+]=C1NCCCN1 [Compound 8, cis-[Pt(NH3)2(Diaz)2].2NO3]
in vitro cytotoxicity against A549 compared in words with cisplatin / carboplatin [1]: nearly same as that of carboplatin | IC50 [1]: 75 ± 2 µM | IC50 [2]: 90 ± 2 µM | IC50 [3]: 76 ± 1 µM

CCN1CCCNC1=[S+][Pt-2]([NH3+])([NH3+])[S+]=C1NCCCN1CC.O=[N+]([O-])[O-].O=[N+]([O-])[O-] [Compound 9, cis-[Pt(NH3)2(EtDiaz)2].2NO3]
in vitro cytotoxicity against A549 compared in words with cisplatin / carboplatin [1]: nearly same as that of carboplatin | IC50 [1]: 73 ± 1 µM | IC50 [2]: 103 ± 3 µM | IC50 [3]: 90 ± 2 µM

O=[N+]([O-])[O-].O=[N+]([O-])[O-].[NH3+][Pt-2]([NH3+])([S+]=C1NCCCCN1)[S+]=C1NCCCCN1 [Compound 10, cis-[Pt(NH3)2(Diap)2].2NO3]
in vitro cytotoxicity against A549 compared in words with cisplatin / carboplatin [1]: comparable to cisplatin | IC50 [1]: 52 µM | IC50 [2]: 71 ± 1 µM | cytotoxicity against HCT15 compared in words with cisplatin / carboplatin [3]: lower IC50 values | IC50 [3]: 41 ± 1 µM
